Assay results: patent US12390437B2, “Itaconic acid derivatives and uses thereof intreating an inflammatory disease or a disease associated with an undesirable immune response” (Sitryx Therapeutics Limited, priority 2019, dated 2025)
Each block holds one compound with its values, some of them ahead of it.

What was measured:
[1] = system: IL-1β cytokine output from THP-1s; assay: THP-1 AlphaLISA IL-1β cytokine assay; assay type: cell-based, human; conditions: Homo sapiens, THP-1, PMA-differentiated THP-1 cells, LPS 24 hr then Nigericin 1 hour; read-out: IL-1β (IC50)
Outline: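 PMA-differentiated THP-1 cells (72 h) were pre-incubated 30 min with compound, then LPS-primed 24 h and pulsed with nigericin for 1 h at 37 °C. Supernatant cytokine was quantified by AlphaLISA; % inhibition was normalised to +/−LPS plate controls and IC50 taken from concentration-response curves.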

[2] = system: IL-6 cytokine output from THP-1s; assay: THP-1 AlphaLISA IL-6 cytokine assay; assay type: cell-based, human; conditions: Homo sapiens; PMA-differentiated THP-1 cells, LPS 24 hr then Nigericin 1 hour
Method: Measuring Inhibitory Effects on IL-1β and IL-6 Cytokine Output from THP-1s
The cytokine inhibition profiles of compounds of formula (IW-1) were determined in a differentiated THP-1 cell assay. All assays were performed in RPMI-1640 growth medium (Gibco), supplemented with 10% fetal bovine serum (FBS; Gibco), 1% penicillin-streptomycin and 1% sodium pyruvate unless specified otherwise. The IL-1β and IL-6 cytokine inhibition assays were each run in a background of differentiated THP-1 cells as described below. All reagents described were from Sigma-Aldrich unless specified otherwise. Compounds were prepared as 10 mM DMSO stocks.
THP-1 cells were expanded as a suspension up to 80% confluence in appropriate growth medium. Cells were harvested, suspended, and treated with an appropriate concentration of phorbol 12-myristate 13-acetate (PMA) over a 72 hr period (37° C./5% CO2).
Following 72 hrs of THP-1 cell incubation, cellular medium was removed and replaced with fresh growth media containing 1% of FBS. Working concentrations of compounds were prepared separately in 10% FBS treated growth medium and pre-incubated with the cells for 30 minutes (37° C./5% CO2). Following the 30 minute compound pre-incubation, THP-1s were treated with an appropriate concentration of LPS and the THP-1s were subsequently incubated for a 24 hr period (37° C./5% CO2). An appropriate final concentration of Nigericin was then dispensed into the THP-1 plates and incubated for 1 hour (37° C./5% CO2) before THP-1 supernatants were harvested and collected in separate polypropylene 96-well holding plates.
Reagents from each of the IL-1β and IL-6 commercial kits (Perkin Elmer) were prepared and run according to the manufacturer's instructions. Subsequently, fluorescence signal detection in a microplate reader was measured (EnVision® Multilabel Reader, Perkin Elmer).
Percentage inhibition was calculated per cytokine by normalising the sample data to the high and low controls used within each plate (+/−LPS respectively). Percentage inhibition was then plotted against compound concentration and the 50% inhibitory concentration (IC50) was determined from the resultant concentration-response curve.

SMILES: C=C(CC(=O)OC1CCCCC1)C(=O)OC(C)CS(C)(=O)=O (stereo not shown) [Example 59, 4-cyclohexyl 1-(1-(methylsulfonyl)propan-2-yl) 2-methylenesuccinate]
IC50 [1]: 13.3 µM | IC50 [2]: 8.8 µM

SMILES: C=C(CC(=O)OC1CCCCC1)C(=O)OC1CCOCC1 [Example 64, 4-cyclohexyl 1-(tetrahydro-2H-pyran-4-yl) 2-methylenesuccinate]
IC50 [1]: 10.2 µM | IC50 [2]: 12.6 µM

SMILES: C=C(CC(=O)OC1CCCCC1)C(=O)OCCN1CCCC1=O [Example 65, 4-cyclohexyl 1-(2-(2-oxopyrrolidin-1-yl)ethyl) 2-methylenesuccinate]
IC50 [1]: 22.6 µM | IC50 [2]: 22.4 µM

SMILES: C=C(CC(=O)OCCCCCCCC)C(=O)OC1(C)COC1 [Example 68, 1-(3-methyloxetan-3-yl) 4-octyl 2-methylenesuccinate]
IC50 [1]: 24 µM | IC50 [2]: 9.1 µM

SMILES: C=C(CC(=O)OC1CCCCCCC1)C(=O)OCCN1CCCC1=O [Example 71, 4-cyclooctyl 1-(2-(2-oxopyrrolidin-1-yl)ethyl) 2-methylenesuccinate]
IC50 [1]: 8.7 µM | IC50 [2]: 9.6 µM

SMILES: C=C(CC(=O)O[C@H](C)CCCCCC)C(=O)OCCN1CCCC1=O [Example 72, (R)-4-(octan-2-yl) 1-(2-(2-oxopyrrolidin-1-yl)ethyl) 2-methylenesuccinate]
IC50 [1]: 11.4 µM | IC50 [2]: 8.2 µM

SMILES: C=C(CC(=O)O[C@H](C)CCCCCC)C(=O)OC1CCOCC1 [Example 73, (R)-4-(octan-2-yl) 1-(tetrahydro-2H-pyran-4-yl) 2-methylenesuccinate]
IC50 [1]: 24.1 µM | IC50 [2]: 23.5 µM

SMILES: C=C(CC(=O)OCCCCCCCC)C(=O)OC(C)C(=O)O (stereo not shown) [Example 79, 2-((2-methylene-4-(octyloxy)-4-oxobutanoyl)oxy)propanoic acid]
IC50 [1]: 11.9 µM | IC50 [2]: 13.5 µM

SMILES: C=C(CC(=O)OCC(C)(C)C)C(=O)OCCC(=O)O [Example 83, 3-((2-methylene-4-(neopentyloxy)-4-oxobutanoyl)oxy)propanoic acid]
IC50 [1]: 34.2 µM | IC50 [2]: 96.9 µM

SMILES: C=C(CC(=O)OCCS(=O)(=O)c1ccc(C)cc1)C(=O)OCC(=O)O [Example 97, 2-((2-methylene-4-oxo-4-(2-tosylethoxy)butanoyl)oxy)acetic acid]
IC50 [1]: 29.3 µM | IC50 [2]: 30.3 µM

SMILES: C=C(CC(=O)OCCCCCCCC)C(=O)OCC(=O)N1CCN(C)CC1 [Example 107, 1-(2-(4-methylpiperazin-1-yl)-2-oxoethyl) 4-octyl 2-methylenesuccinate]
IC50 [1]: 10 µM | IC50 [2]: 2.7 µM

SMILES: C=C(CC(=O)OCCCCCCCC)C(=O)OCCC(=O)N1CCOCC1 [Example 108, 1-(3-morpholino-3-oxopropyl) 4-octyl 2-methylenesuccinate]
IC50 [1]: 11.1 µM | IC50 [2]: 3.1 µM

SMILES: C=C(CC(=O)OCCCCCCCC)C(=O)OCCC(=O)N(CC)CC [Example 109, 1-(3-(diethylamino)-3-oxopropyl) 4-octyl 2-methylenesuccinate]
IC50 [1]: 10.6 µM | IC50 [2]: 6.8 µM

SMILES: C=C(CC(=O)OC1CCCCC1)C(=O)OC(C)C(=O)O (stereo not shown) [Example 111, 2-((4-(cyclohexyloxy)-2-methylene-4-oxobutanoyl)oxy)propanoic acid]
IC50 [1]: 100 µM | IC50 [2]: 70.9 µM

SMILES: C=C(CC(=O)OCC1CCC(F)(F)CC1)C(=O)OCC(=O)O [Example 113, 2-((4-((4,4-difluorocyclohexyl)methoxy)-2-methylene-4-oxobutanoyl)oxy)acetic Acid]
IC50 [1]: 100 µM | IC50 [2]: 48.5 µM

SMILES: C=C(CC(=O)OCCCOCC)C(=O)OCC(=O)O [Example 114, 2-((4-(3-ethoxypropoxy)-2-methylene-4-oxobutanoyl)oxy)acetic acid]
IC50 [1]: 100 µM | IC50 [2]: 56.2 µM

SMILES: C=C(CC(=O)OC1CC2CCC1C2)C(=O)OCC(=O)O (stereo not shown) [Example 115, 2-((4-(bicyclo[2.2.1]heptan-2-yloxy)-2-methylene-4-oxobutanoyl)oxy)acetic acid]
IC50 [1]: 59.5 µM | IC50 [2]: 36.3 µM

SMILES: C=C(CC(=O)OC1CCC1)C(=O)OCC(=O)O [Example 116, 2-((4-cyclobutoxy-2-methylene-4-oxobutanoyl)oxy)acetic acid]
IC50 [1]: 100 µM | IC50 [2]: 60.4 µM

SMILES: C=C(CC(=O)OC1CCCCC1)C(=O)OCC(C)(C)C(=O)O [Example 117, 3-((4-(cyclohexyloxy)-2-methylene-4-oxobutanoyl)oxy)-2,2-dimethylpropanoic acid]
IC50 [1]: 100 µM | IC50 [2]: 43.9 µM

SMILES: C=C(CC(=O)OCCCCCC)C(=O)OCC(=O)NS(C)(=O)=O [Example 119, 4-hexyl 1-(2-(methylsulfonamido)-2-oxoethyl) 2-methylenesuccinate]
IC50 [1]: 82.4 µM | IC50 [2]: 47.5 µM

Further lines, results first:

IC50 [1]: 5.1 µM | IC50 [2]: 3.8 µM
SMILES: C=C(CC(=O)O[C@H](C)CCCCCC)C(=O)OCCS(C)(=O)=O [Example 55, (R)-1-(2-(methylsulfonyl)ethyl) 4-(octan-2-yl) 2-methylenesuccinate]

IC50 [1]: 7.9 µM | IC50 [2]: 3.5 µM
SMILES: C=C(CC(=O)O[C@H](C)CCCCCC)C(=O)OC(C)CS(C)(=O)=O (stereo partly drawn) [Example 56, 1-(1-(methylsulfonyl)propan-2-yl) 4-((R)-octan-2-yl) 2-methylenesuccinate]

IC50 [1]: 4.4 µM | IC50 [2]: 2.6 µM
SMILES: C=C(CC(=O)O[C@H](C)CCCCCC)C(=O)OC1CS(=O)(=O)C1 [Example 57, (R)-1-(1,1-dioxidothietan-3-yl) 4-(octan-2-yl) 2-methylenesuccinate]

IC50 [1]: 6.5 µM | IC50 [2]: 3.8 µM
SMILES: C=C(CC(=O)O[C@H](C)CCCCCC)C(=O)OC1CN(C(C)=O)C1 [Example 58, (R)-1-(1-acetylazetidin-3-yl) 4-(octan-2-yl) 2-methylenesuccinate]

IC50 [1]: 1.9 µM | IC50 [2]: 1.4 µM
SMILES: C=C(CC(=O)OC1CCCCC1)C(=O)OC1CS(=O)(=O)C1 [Example 60, 4-cyclohexyl 1-(1,1-dioxidothietan-3-yl) 2-methylenesuccinate]

IC50 [1]: 6.1 µM | IC50 [2]: 5 µM
SMILES: C=C(CC(=O)OC1CCCCC1)C(=O)OCCS(C)(=O)=O [Example 61, 4-cyclohexyl 1-(2-(methylsulfonyl)ethyl) 2-methylenesuccinate]

IC50 [1]: 3.5 µM | IC50 [2]: 2.8 µM
SMILES: C=C(CC(=O)OC1CCCCCCC1)C(=O)OC(C)CS(C)(=O)=O (stereo not shown) [Example 62, 4-cyclooctyl 1-(1-(methylsulfonyl)propan-2-yl) 2-methylenesuccinate]

IC50 [1]: 1.3 µM | IC50 [2]: 2.5 µM
SMILES: C=C(CC(=O)OC1CCCCCCC1)C(=O)OC1CN(C(C)=O)C1 [Example 63, 1-(1-acetylazetidin-3-yl) 4-cyclooctyl 2-methylenesuccinate]

IC50 [1]: 2.3 µM | IC50 [2]: 2.5 µM
SMILES: C=C(CC(=O)O[C@@H](C)CCCCCC)C(=O)OC1CN(C(C)=O)C1 [Example 66, (S)-1-(1-acetylazetidin-3-yl) 4-(octan-2-yl) 2-methylenesuccinate]

IC50 [1]: 5.7 µM | IC50 [2]: 4.8 µM
SMILES: C=C(CC(=O)O[C@@H](C)CCCCCC)C(=O)OC1CS(=O)(=O)C1 [Example 67, (S)-1-(1,1-dioxidothietan-3-yl) 4-(octan-2-yl) 2-methylenesuccinate]

IC50 [1]: 6.1 µM | IC50 [2]: 9.4 µM
SMILES: C=C(CC(=O)OC1CCCCCCC1)C(=O)OC1CCOCC1 [Example 70, 4-cyclooctyl 1-(tetrahydro-2H-pyran-4-yl) 2-methylenesuccinate]

IC50 [1]: 8.5 µM | IC50 [2]: 4.4 µM
SMILES: C=C(CC(=O)OCCCCCCCC)C(=O)OCCC(=O)NC [Example 110, 1-(3-(methylamino)-3-oxopropyl) 4-octyl 2-methylenesuccinate]
